Assays:
[1] = Solid stability test of the crystalline form A; assay type: physicochemical
[2] = Hygroscopicity study by dynamic vapor sorption (DVS); assay type: physicochemical; conditions: 25° C. and 80% RH
Procedure: • Instrument model: SMS DVS advantage dynamic vapor sorption analyzer • Testing conditions: the sample (10-20 mg) was placed in DVS sample trays for testing. Detailed DVS Parameters: • Temperature: 25° C. • Balancing: dm/dt=0.01%/min (shortest: 10 min, longest: 180 min) • Drying: drying for 120 min at 0% RH • RH (%) testing step: 10% • RH (%) testing step range: 0%-90%-0%
The evaluation of hygroscopicity was classified as follows:
• 10-15 mg of the crystalline form A of the compound of formula (I) was placed on a DVS sample tray for testing.

Cc1sc2c(c1C)C(c1ccc(Cl)cc1)=N[C@@H](CC(=O)Nc1ccc3c(c1)COC3=O)c1nnc(C)n1-2
Appearance ([1]; 0 day (initial)): White
Content ([1]; 0 day (initial)): 98.7%
Crystalline form (XRPD) ([1]; 0 day (initial)): form A
Total impurity ([1]; 0 day (initial)): 0.17%
Appearance ([1]; 25° C./60% RH, sealed, 90 days): White
Content ([1]; 25° C./60% RH, sealed, 90 days): 99.4%
Crystalline form (XRPD) ([1]; 25° C./60% RH, sealed, 90 days): form A
Total impurity ([1]; 25° C./60% RH, sealed, 90 days): 0.12%
Appearance ([1]; 40° C./75% RH, sealed, 90 days): White
Content ([1]; 40° C./75% RH, sealed, 90 days): 99.2%
Crystalline form (XRPD) ([1]; 40° C./75% RH, sealed, 90 days): form A
Total impurity ([1]; 40° C./75% RH, sealed, 90 days): 0.19%
Solid stability (conclusion) ([1]; accelerated and prolonged conditions, 90 days): good stability
Moisture absorption classification [2]: slightly hygroscopic
ΔW, increase in weight by moisture sorption [2]: 1.789%

— patent US12344620B2, “BRD4 inhibitor compound in solid form and preparation method therefor and use thereof” (CSPC ZHONGQI PHARMACEUTICAL TECHNOLOGY (SHIJIAZHUANG) CO., …, priority 2019, dated 2025)
